Source: the supplement of paper PMC10307832

Assays:
Assay in all cases: relative viability (nuclei count vs DMSO), 5 days (fraction); higher = more cells survive
IPA-3 + Olaparib = compound: C1=CC=C2C(=C1)C=CC(=C2SSC3=C(C=CC4=CC=CC=C43)O)O [IPA-3] + O=C(c1cc(Cc2n[nH]c(=O)c3ccccc23)ccc1F)N1CCN(C(=O)C2CC2)CC1 [Olaparib] (partner 8 µM)
Outline: (§1)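 Dosing by pin tool came one day after lung cancer cell lines were seeded in 1536-well plates, using either one drug or a fixed anchor-drug dose plus five library-drug doses (not always all listed) in √10 steps. After 5 days, nuclei were counted on 4× images. Relative viability is treated-well nuclei count divided by vehicle-well nuclei count, and values are medians of duplicate plates.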

Doramapimod + Pictilisib = compound: Cc1ccc(-n2nc(C(C)(C)C)cc2NC(=O)Nc2ccc(OCCN3CCOCC3)c3ccccc23)cc1 [Doramapimod] + CS(=O)(=O)N1CCN(Cc2cc3nc(-c4cccc5[nH]ncc45)nc(N4CCOCC4)c3s2)CC1 [Pictilisib] (partner 1 µM)
Outline: as §1

Doramapimod + Pemetrexed = compound: Cc1ccc(-n2nc(C(C)(C)C)cc2NC(=O)Nc2ccc(OCCN3CCOCC3)c3ccccc23)cc1 [Doramapimod] + Nc1nc2[nH]cc(CCc3ccc(C(=O)N[C@@H](CCC(=O)O)C(=O)O)cc3)c2c(=O)[nH]1 [Pemetrexed] (partner 0.2 µM)
Outline: as §1

RAF265 + Trametinib = compound: Cn1c(Nc2ccc(C(F)(F)F)cc2)nc2cc(Oc3ccnc(-c4ncc(C(F)(F)F)[nH]4)c3)ccc21 [RAF265] + CC(=O)Nc1cccc(-n2c(=O)n(C3CC3)c(=O)c3c(Nc4ccc(I)cc4F)n(C)c(=O)c(C)c32)c1 [Trametinib] (partner 0.02 µM)
Outline: as §1

| Cell Line | relative viability (IPA-3 + Olaparib; first compound 0.2 µM) | relative viability (IPA-3 + Olaparib; first compound 0.6325 µM) | relative viability (IPA-3 + Olaparib; first compound 2 µM) | relative viability (IPA-3 + Olaparib; first compound 6.325 µM) | relative viability (IPA-3 + Olaparib; first compound 20 µM) | relative viability (Doramapimod + Pictilisib; first compound 0.02 µM) | relative viability (Doramapimod + Pictilisib; first compound 0.06325 µM) | relative viability (Doramapimod + Pictilisib; first compound 0.2 µM) | relative viability (Doramapimod + Pictilisib; first compound 0.6325 µM) | relative viability (Doramapimod + Pictilisib; first compound 2 µM) | relative viability (Doramapimod + Pemetrexed; first compound 0.02 µM) | relative viability (Doramapimod + Pemetrexed; first compound 0.06325 µM) | relative viability (Doramapimod + Pemetrexed; first compound 0.2 µM) | relative viability (Doramapimod + Pemetrexed; first compound 0.6325 µM) | relative viability (Doramapimod + Pemetrexed; first compound 2 µM) | relative viability (RAF265 + Trametinib; first compound 0.01 µM) | relative viability (RAF265 + Trametinib; first compound 0.03162 µM) | relative viability (RAF265 + Trametinib; first compound 0.1 µM) | relative viability (RAF265 + Trametinib; first compound 0.3162 µM) | relative viability (RAF265 + Trametinib; first compound 1 µM) |
| --- | --- | --- | --- | --- | --- | --- | --- | --- | --- | --- | --- | --- | --- | --- | --- | --- | --- | --- | --- | --- |
| SW 1573 | 0.665 | 0.403 | 0.404 | 0.403 | 0.0864 | 0.448 | 0.375 | 0.408 | 0.423 | 0.379 | 0.772 | 0.794 | 0.773 | 0.938 | 0.721 | 0.665 | 0.597 | 0.556 | 0.54 | 0.255 |
| NCI-H322M | 0.91 | 0.786 | 0.817 | 0.776 | 0.746 | 0.902 | 0.501 | 0.577 | 0.585 | 0.479 | 0.666 | 0.653 | 0.64 | 0.644 | 0.654 | 0.496 | 0.421 | 0.486 | 0.507 | 0.409 |
| LK-2 | 0.831 | 0.615 | 0.788 | 0.988 | 0.938 | 0.538 | 0.545 | 0.464 | 0.368 | 0.349 | 0.283 | 0.286 | 0.283 | 0.198 | 0.157 | 0.721 | 0.628 | 0.787 | 0.799 | 0.53 |
| NCI-H2023 | 0.514 | 0.503 | 0.624 | 0.547 | 0.395 | 0.25 | 0.195 | 0.195 | 0.152 | 0.213 | 0.215 | 0.219 | 0.226 | 0.259 | 0.215 | 0.608 | 0.508 | 0.533 | 0.55 | 0.266 |
| NCI-H596 | 0.638 | 0.708 | 0.773 | 0.768 | 0.748 | 0.417 | 0.381 | 0.407 | 0.429 | 0.355 | 0.484 | 0.52 | 0.468 | 0.522 | 0.479 | 0.836 | 0.75 | 0.813 | 0.826 | 0.638 |
| SK-MES-1 | 0.763 | 0.694 | 0.652 | 0.498 | 0.241 | 0.405 | 0.282 | 0.304 | 0.291 | 0.269 | 0.895 | 0.96 | 0.986 | 0.942 | 0.795 | 0.601 | 0.531 | 0.443 | 0.317 | 0.285 |
| NCI-H1793 | 0.699 | 0.773 | 0.923 | 0.893 | 1.2 | 0.392 | 0.324 | 0.245 | 0.336 | 0.252 | 0.885 | 0.963 | 0.957 | 0.918 | 0.657 | 0.403 | 0.44 | 0.303 | 0.232 | 0.237 |
| NCI-H2405 | 0.994 | 0.832 | 0.939 | 0.865 | 0.9 | 0.435 | 0.424 | 0.401 | 0.68 | 0.356 | 1.13 | 1.13 | 1.02 | 1.18 | 1.01 | 0.605 | 0.639 | 0.539 | 0.474 | 0.383 |
| LCLC-103H | 0.765 | 0.693 | 0.78 | 0.681 | 0.789 | 0.57 | 0.633 | 0.64 | 0.789 | 0.521 | 0.436 | 0.417 | 0.413 | 0.428 | 0.424 | 0.679 | 0.689 | 0.609 | 0.638 | 0.465 |
| NCI-H460 | 0.575 | 0.393 | 0.454 | 0.418 | 0.447 | 0.374 | 0.383 | 0.266 | 0.548 | 0.291 | 0.0629 | 0.0546 | 0.0497 | 0.0506 | 0.0521 | 0.238 | 0.23 | 0.133 | 0.156 | 0.0601 |
| NCI-H1755 | 0.879 | 0.851 | 0.804 | 0.849 | 0.895 | 0.364 | 0.382 | 0.455 | 0.447 | 0.393 | 0.328 | 0.371 | 0.435 | 0.394 | 0.35 | 0.753 | 0.727 | 0.688 | 0.647 | 0.467 |
| NCI-H358 | 0.649 | 0.514 | 0.879 | 0.505 | 0.564 | 0.388 | 0.329 | 0.373 | 0.373 | 0.321 | 0.176 | 0.167 | 0.162 | 0.169 | 0.175 | 0.152 | 0.115 | 0.116 | 0.127 | 0.129 |
| NCI-H1734 | 0.701 | 0.586 | 0.577 | 0.587 | 0.513 | 0.418 | 0.356 | 0.352 | 0.466 | 0.325 | 0.416 | 0.431 | 0.419 | 0.382 | 0.39 | 0.722 | 0.526 | 0.564 | 0.535 | 0.276 |
| EPLC-272H | 1.16 | 0.628 | 0.797 | 0.787 | 0.887 | 0.344 | 0.418 | 0.377 | 0.296 | 0.275 | 0.351 | 0.301 | 0.303 | 0.374 | 0.327 | 0.28 | 0.287 | 0.3 | 0.204 | 0.205 |
| NCI-H2126 | 1.05 | 0.886 | 0.877 | 0.875 | 1.06 | 0.487 | 0.542 | 0.488 | 0.438 | 0.401 | 0.69 | 0.667 | 0.605 | 0.667 | 0.642 | 0.635 | 0.526 | 0.539 | 0.506 | 0.342 |
